According to patent US11434203B2, “8-hydroxyquinoline derivatives as diagnostic and therapeutic agents” (The General Hospital Corporation, priority 2015, dated 2022):
Read-outs that look alike come from different tables or passages of the source.

Columns and labels:
[1] = target: T1, soluble Aβ oligomers (Human A 1-42) (Homo sapiens, UniProt P05067); assay: Aβ aggregation assay (bis-ANS): reversal of aggregation of soluble Aβ oligomers; format: biochemical
T1 construct: Human A 1-42 (China Peptide); purchased China Peptide
T1 sequence (P05067 672-713): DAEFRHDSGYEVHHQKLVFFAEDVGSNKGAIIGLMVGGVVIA
Text: 4,4(′)-dianilino-1,1(′)-binaphthyl-5,5(′)-disulfonate (bis-ANS, Sigma) was used to assess whether compounds could reverse the aggregation of soluble A oligomers. (See, e.g., LeVine, H., 3rd, (2002) 4,4(′)-Dianilino-1,1(′)-binaphthyl-5,5(′)-disulfonate: report on non-beta-sheet conformers of Alzheimer's peptide beta(1-40), Arch Biochem Biophys 404, 106; Chen, W. T. et al., (2011) Distinct effects of Zn^2+, Cu^2+, Fe^3+, and Al^3+ on amyloid-beta stability, oligomerization, and aggregation: amyloid-beta destabilization promotes annular protofibril formation, J Biol Chem 286, 9646) Human A 1-42 (China Peptide) was dissolved in DMSO (Sigma) to a stock concentration of 1.5 mM. A ([…]) oligomers were induced with ZnSO4 (15 μM) at 26° C. for 30 min in a buffer (pH 7.4) containing Tris (50 mM), NaCl (150 mM) and bis-ANS (10 μM). Compounds (0.1 to 120 μM) dissolved in DMSO (Sigma) were added for 30 min. CQ and PBT2 were used as positive controls. Endpoint fluorescence (excitation=390 nm, emission=490 nm) was measured with a Flex Station (Molecular Devices) fluorescent plate reader. At each concentration, Aβ fluorescence was normalized to background fluorescence and then expressed as a percentage of vehicle treated control samples. […] Data represents the mean of at least 9 replicates from 3 experiments.

AD patients = details: pilot phase II clinical trial, cited from earlier work
SH-SY5Y cells = assay: Ionophore assay: cellular metal levels by ICP-MS; format: cell-based; details: 20 μM, 6 hours; for Cu uptake compared to 8HQ: FIG. 1; for Cu uptake, fold increase than that of PBT2: FIG. 3
Description: Cells were maintained at 37° C. with 5% CO2 and passaged every 3-4 days. Compounds (10 mM) were solubilized in DMSO (Sigma). CQ and PBT2 were used as positive controls. Cells were treated with growth media supplemented with each compound ([…]) or vehicle for 6 hours. Cells were harvested and metal levels were measured with Inductively-Coupled Plasma Mass Spectrometry (Varian), as previously described. […] Data represents the mean and S.E.M. of at least 9 replicates from 3 experiments. A oneway ANVOA with Fisher's LSD test was used to determine statistical differences relative to control (Prism 6, Graphpad).
Dashed line indicates control level. SH-SY5Y cells treated were treated with each compound (20 μM) for 6 hours and cellular metal levels were measured with ICP-MS.
(§1) SH-SY5Y cells treated were treated with each compound (20 μM) for 6 hours and cellular metal levels were measured with ICP-MS. Dashed line indicates control level.
as §1

[2] = tested on: patients with Huntington's disease and patients with AD; details: phase II clinical trials; cited from earlier work
[3] = Aβ oligomers induced with ZnSO4 (15 μM), bis-ANS fluorescence, compounds 0.1 to 120 μM for 30 min, pH 7.4, read-out: EC50 (μM), reversal of aggregation of soluble Aβ oligomers

| Compound | EC50 [1, 3] | also measured |
| --- | --- | --- |
| Oc1c(I)cc(Cl)c2cccnc12 [Clioquinol (CQ), 5-chloro-7-iodo-quinolin-8-ol] | 1.8 µM | rate of cognitive decline (AD patients; AD patients): attenuated; tolerability (AD patients): well tolerated |
| Oc1cccc2ccc(F)nc12 [Compound 5] | – | EC50 [1]: > 120 µM; Cu uptake compared to 8HQ (SH-SY5Y cells): inferior to 8HQ |
| Oc1cccc2cc(F)cnc12 [Compound 6] | – | Cu uptake compared to 8HQ (SH-SY5Y cells): inferior to 8HQ |
| Oc1ccccc1/N=C/c1ccc(F)cc1 [Compound 10] | 15.4 µM | – |
| Oc1c(F)cc(Cl)c2cccnc12 [Compound 12, 5-chloro-7-fluoro-8-hydroxyquinoline] | 4.9 µM | – |
| Oc1c(F)cc(Br)c2cccnc12 [Compound 13, 5-bromo-7-fluoro-8-hydroxyquinoline] | 3.5 µM | – |
| Oc1c(F)cc(I)c2cccnc12 [Compound 14, 7-fluoro-5-iodo-8-hydroxyquinoline] | 2.3 µM | – |
| Oc1c(Cl)cc(F)c2cccnc12 [Compound 15, 7-chloro-5-fluoro-8-hydroxyquinoline] | 5.2 µM | – |
| Oc1c(Br)cc(F)c2cccnc12 [Compound 16, 7-bromo-5-fluoro-8-hydroxyquinoline] | 3.7 µM | – |
| Oc1c(I)cc(F)c2cccnc12 [Compound 17, 5-fluoro-7-iodo-8-hydroxyquinoline] | 2.5 µM | – |
| Oc1c(Cl)cc(Cl)c2ccc(COCCF)nc12 [Compound 23, 5,7-dichloro-2-((2-fluoroethoxy)methyl)quinolin-8-ol] | 2.4 µM | – |
| Oc1c(Cl)cc(Cl)c2ccc(COCCCCF)nc12 [Compound 24, 5,7-dichloro-2-((4-fluorobutoxy)methyl)quinolin-8-ol] | 2 µM | – |
| CN(Cc1cn(CCF)nn1)Cc1ccc2c(Cl)cc(Cl)c(O)c2n1 [Compound 28, 5,7-dichloro-2-((((1-(2-fluoroethyl)-1H-1,2,3-triazol-4-yl)methyl)(methyl)amino)methyl)quinolin-8-ol] | 2.3 µM | Cu uptake, fold increase than that of PBT2 (SH-SY5Y cells): 10 fold |
| CN(Cc1cn(CCCF)nn1)Cc1ccc2c(Cl)cc(Cl)c(O)c2n1 [Compound 29, 5,7-dichloro-2-((((1-(3-fluoropropyl)-1H-1,2,3-triazol-4-yl)methyl)(methyl)amino)methyl)quinolin-8-ol] | 4.5 µM | Cu uptake, fold increase than that of PBT2 (SH-SY5Y cells): 16 fold |
| CN(Cc1cn(CCCCF)nn1)Cc1ccc2c(Cl)cc(Cl)c(O)c2n1 [Compound 30, 5,7-dichloro-2-((((1-(4-fluorobutyl)-1H-1,2,3-triazol-4-yl)methyl)(methyl)amino)methyl)quinolin-8-ol] | 2.8 µM | Cu uptake, fold increase than that of PBT2 (SH-SY5Y cells): 8 fold |
| CN(C)Cc1ccc2c(Cl)cc(Cl)c(O)c2n1 [PBT2, 5,7-Dichloro-2-((dimethylamino)methyl) 8-quinolinol, reference compound] | 2 µM | benefits in patients [2]: shown benefits |
